Columns and labels:
[1] = glibomuride-β-cyclodextrin complex vs. physical mixture; cited from earlier work
[2] = In vitro release of methylprednisolone and SBE7 β-CD from tablets (USP apparatus II); assay type: physicochemical
Experimental: The MP and SBE7 β-CD (present in a 1:7 molar ratio) along with a pharmaceutical carrier were compressed into a solid core which was spray coated with a mixture of ethylcellulose, PEG3350, PEG400 and ethanol to form a 140 μm thick film coating around the solid core. The dissolution profile was determined using USP dissolution apparatus II (100 rpm, 37° C.) and an HPLC assay for methylprednisolone (MP). […] The first formulation, indicated in FIG. 1 by the hollow circles, contains the separately preformed MP-SBE7 β CD freeze-dried complex. The second formulation, indicated by the filled in circles, contains a major portion of uncomplexed MP as a physical mixture with SBE7 β-CD. The third formulation, indicate by the squares, contains a physical mixture of lactose, fructose and MP.
The tablet core was prepared with a 1/7 molar ratio of methylprednisolone/(SBE)7 -β-CD. This ratio was calculated using the previously determined binding constant in order to have sufficient (SBE)7 -β-CD in the tablet core to solubilize all the methylprednisolone present. […] The tablet core consisted of either the methylprednisolone-(SBE)7-β-CD complex or the physical mixture of the two compounds. The complex was prepared by freeze drying a methylprednisolone-(SBE)7 -β-CD solution (5-15% in (SBE)7-β-CD). Non (SBE)7 -β-CD containing tablets were also prepared. They consisted of a 1/7 ratio of methylprednisolone to a 50:50 (w/w) mixture of fructose and lactose (Fischer Scientific, N.J.). The mixtures were ground in a mortar and sieved through a 200 mesh (75 μm) screen under low humidity conditions. The mixtures were stored in a dessicator when not used. Tablets of around 150 mg were compressed into the dissolution die using a Carver Laboratory Press (Fred S. Carver Inc., N.J.) at 1 ton during 1 min.
The coating formulation was prepared by mixing 4.5% of ethylcellulose (Ethocel Standard 10 Premium, Dow Chemicals, Mich.) with an equivalent amount of poly(ethylene glycol) 3350 (PEG 3350, Sigma, MO). 0.9% of PEG 400 (Sigma, MO) and 90.1% of absolute ethanol were added to the mixture. The dispersion was shaken and sonicated until complete dissolution of the solid components. The coating solution was air sprayed (Airbrush, Paasche) on a Teflon surface under constant air flow (40° C.). At the end of the spraying, the membranes were dried under the 40° C. air flow for 5 min. They were then left at room temperature during 24 hours. The membranes were peeled off the Teflon surface, checked for cracks and flaws under a light microscope (X70) and their thickness was measured using a micrometer (Ames, Mass.). The membranes were then secured on the dissolution die containing the tablet, with the face which was sprayed on the Teflon in contact with the tablet surface.
The release studies were realized by placing the dissolution die in a USP dissolution apparatus II (Vanderkamp 600, VanKel Industries Inc.) containing 350 ml of water at 37° C., 100 rpm. Samples were collected at various time points. The 100% release was determined by removing the membrane from the die and allowing the drug dissolution to be complete.

[3] = Release of methylprednisolone from tablets with […] RS/RL coating without pore forming agent (FIG. 15); assay type: physicochemical; details: Eudragit RS:RL 9 to 1, approximately 5 wt.% coating
Text: As previously mentioned, it is not required that a pharmaceutical formulation according to the invention comprise a coated core wherein the coat comprises a film forming agent and a pore forming agent. […] In this formulation, the coat comprises a combination of Eudragit™ RS and Eudragit™ RL in a 9 to 1 weight ratio and the coating on the core of the tablet comprises approximately 5 wt.% of the total weight of the tablet. Accordingly, the present invention also provides controlled release pharmaceutical formulations consisting essentially of a core surrounded by a coat which comprises a film forming agent wherein the coat controls the rate of delivery of the drug even absent a pore forming agent in the coating.
The above formulation was prepared by first reducing the particle size of the SBE7 -βCD with a wedgewood mortar and pestle and then passing the powder through a 100 mesh screen. The sodium stearyl fumarate was also sieved through a 100 mesh screen prior to use. The SBE7 -βCD and MP were blended together geometrically in a glass mortar. The CEOLUS™, SUPERTAB™, PRUV™ components were then added in order in sequential steps while mixing. Tablets weighing approximately 250 mg each were compressed by hand on a Stokes B2 tablet press using 7 mm standard cup concave toolings. The tablets were compressed to a hardness of approximately 14 kp. […]

[4] = Release of testosterone from osmotic pumps; assay type: physicochemical; details: osmotic pump with (SBE)7m -β-CD vs. sugar mixture or HP-β-CD; FIG. 25
Experimental: For the preparation of cores, physical mixtures of TS with (SBE)7m -β-CD, HP-β-CD or sugar (physical mixture of lactose and fructose, 1/1) each containing 10 mg TS were compressed at 1 ton/cm^2 for 60 sec using a Carver™ Laboratory Press with a 6.35 mm flat faced punch. The molar ratios of TS to (SBE)7m -β-CD in the physical mixtures ranged from 1:1 to 1:1.43 and that in the physical mixture with HP-β-CD ranged from 1:1 to 1:1.79. The physical mixtures of TS with the β-CD derivatives or sugar were prepared using a mortar and a pestle. The compressed tablet core was placed in a tablet die as described above. […]
The dissolution and release rates of TS from core tablets (no membrane covering) or the osmotic pump devices (core tablets covered by a semipermeable membrane) were measured using a USP apparatus utilizing the paddle method. […] The amount of each osmotic pump agent, (SBE)7m -β-CD, HP-β-CD and sugar, released from the OPT was calculated by difference from the weight of the total ingredients released and the weight of the remaining released components at each sampling time in the study. […] The weight of the released osmotic agent was measured as a residual weight after evaporating and vacuum drying a 200 ml solution sample for 12 hr at 60° C. […]

[5] = In vitro release of testosterone from tablets (USP apparatus II); assay type: physicochemical; details: 1:1 molar TST:SBE7 β-CD; sorbitol/PEG 400/cellulose acetate film; FIG. 8
Experimental: (FIG. 8) The solid core of the tablet comprised a 1:1 molar ratio of TST and SBE7 β-CD. The film coating of this tablet comprised sorbitol, PEG 400 and cellulose acetate. The release profiles of the physical mixture and complex formulation were compared to that of a baseline TST/fructose-lactose formulation.
The tablet core was prepared with a 1/1 molar ratio of testosterone/(SBE)7 -β-CD. The tablet core consisted of either the testosterone-(SBE)7 -β-CD complex or the physical mixture of the two compounds. The complex was prepared by freeze-drying a testosterone-(SBE)7 -β-CD solution (5-15% in (SBE)7m -β-CD). Non (SBE)7 -β-CD containing tablets were also prepared. […]
Semi-permeable Membrane Preparation The coating formulation was prepared by dissolving 1.0% of sorbitol (Sigma, MO) in 3.7% of double distilled water and 0.4% of PEG 400 (Sigma, MO). […] The membranes were peeled off the surface, checked for cracks and flaws under a light microscope (X70) and their thickness was measured using a Micrometer (Ames, Mass.). […]
The release studies were realized by placing the dissolution die in a USP dissolution apparatus II (Vanderkamp 600, VanKel Industries Inc.) containing 900 ml of water at 37° C., 100 rpm. […] The 100% release was determined by removing the membrane from the die and allowing the drug dissolution to be complete. The samples were analyzed by HPLC for testosterone concentration.

Cc1ccc(S(=O)(=O)NC(=O)NC2C3CCC(C)(C2O)C3(C)C)cc1 (stereo not shown) [glibomuride]
bioavailability of complex vs. physical mixture [1]: two to three fold better

C[C@H]1C[C@@H]2[C@H]([C@@H](O)C[C@@]3(C)[C@H]2CC[C@]3(O)C(=O)CO)[C@@]2(C)C=CC(=O)C=C12 [methylprednisolone]
release profile, MP vs. SBE7 β-CD ([2]; 140 μm film, FIG. 2a, 2b): substantially the same release profiles | release profile, physical mixture vs. freeze dried complex ([2]; 200 μm film, FIG. 3a, 3b): a slight difference was noted in the release profiles of the physical mixture versus the freeze dried complex | release profile, physical mixture vs. preformed complex ([2]; MP:SBE7 β-CD 1:7 molar, 140 μm ethylcellulose/PEG film, FIG. 1, 2): release profile similar to or substantially similar to the former | effect of MP/SBE7 β-CD ratio on release ([2]; film coated tablets, ratios 1/10, 1/7, 1/3, FIG. 7a-7d): decreasing the relative amount of SBE7 β-CD decreases the observed release profile for MP | release profile, physical mixture vs. complex, uncoated core ([2]; no film, FIG. 6): The physical mixture exhibits substantially the same release profiles as the complex | release characteristics, physical mixture vs. freeze dried complex ([2]; ratios 1/10, 1/7, 1/3, FIG. 7a-7d): substantially the same release characteristics | release of MP, coat without pore forming agent [3]: MP is released from a tablet formulation

C[C@]12CC[C@H]3[C@@H](CCC4=CC(=O)CC[C@@]43C)[C@@H]1CC[C@@H]2O [testosterone]
release from osmotic pumps [4]: released a greater amount of TS and at a more acceptable rate than the osmotic pumps containing the sugar mixture or HP-β-CD | release profile, physical mixture vs. freeze dried complex [5]: exhibited the same release profile as the respective freeze dried mixture
